Results taken from publication PMC11865978, “Cellular Activity of CQWW Nullomer-Derived Peptides” (ACS Omega, 2025).

What was measured:
[1] = test system: mitochondria, all cell lines including GCGR-NS9FB_B; assay: Mitotracker stain intensity in cell painting assay; assay type: cell-based, human; details: compared with Peptide 15 control
Procedure: Figure S4 – Network analysis (STRING) showing protein interactions resulting from treatment with […]
2nd shell) <10. Top ranked Gene Ontology (GO terms) for biological processes is listed (top right) with Log[False Discovery Rate] indicated.
High Content Phenotypic Screening assays
Cell lines (glioma stem cell lines and normal foetal neural stem cells) were seeded on laminin (10 µg/mL) coated 384-well plates (Greiner Bio-One, 781091) at 1,000 cells/well and incubated overnight at 37 °C and 5% CO2. Aqueous peptide solutions (10 mM) were further diluted to 1 mM in water containing 10 % glycerol and 0.01 % TX-100. […]
BSA/PBS. […] The data was then analyzed using a custom CellProfiler software pipeline using the University of Edinburgh high performance computing cluster. Dose response plots were calculated using HC StratomineR (corelifeanalytics.com). Nuclei count data was analyzed separately to generate cell survival metrics (normalized to aqueous glycerol/TX -100 control).
Dose response curves were fitted and IC50 values calculated using Prism GraphPad (graphpad.com). […]
Figure S5 – The CellProfiler-derived feature “MedianNucleiIntensityMADIntensityW5”, reading out mitotracker stain intensity observed in cell nuclei after treatment with the Peptide 2 nullomer (blue) and Peptide 15 (control). […]

[2] = test system: Met, ERBB2, CCND1, PTEN, PARP1, GSK3B; assay: RPPA with STRING network analysis; assay type: cell-based, human; details: peptide at 3 μM
Procedure: growth and stemness was further supported by the addition of laminin extracellular matrix (Cultrex 3446-005-01, 4-10 mg/mL) to the growth media and to create pre-coated flasks/384w plates. Cells were cultured in T75 cm2 flasks and passaged as follows: Glioma stem cells generally grow slowly (~60hrs doubling time, excepting GCGR-E57 cells ~24hrs) and lag phase was exacerbated by sparse seeding. Cell confluence is generally ~80 -90% prior to passaging, whereby the culture media was aspirated, the cells washed (PBS) and Accutase solution (Sigma A6964, 1 mL) was added to detach the cells, which were then incubated at 37 °C for <5 minutes. Cells were resuspended in media and centrifuged for 3 minutes at 300 × g. Resuspended cells were typically split 1:5, 1:8 (GCGR-E57 cells) and 1:2, 1:4 for the remainder of cell lines, depending on requirements . Cells were passaged every 4-7 days to maintain health and growth and discarded after 3 months, whereupon a fresh batch of cells […]
Culture media was aspirated and cells washed with wash media. […] A 10 μL sample of the cell suspension was pipetted onto the reading surface of a DeNovix CellDrop automated cell counter and the reading was used to dilute the suspension in complete media to 250,000 cells/mL. […]
The cell pellet preparation was performed on ice. […] The supernatant was aspirated, and the pellets were stored at -80 °C until ready for RPPA. […]

H-RRRRRCQWW-NH2 [Peptide 2]
mitotracker stain intensity in cell nuclei (MedianNucleiIntensityMADIntensityW5) [1]: reduce mitotracker intensity in a dose dependent manner
mitotracker stain intensity in cells (MedianCellsIntensityMeanIntensityW5) [1]: reduce mitotracker intensity in a dose dependent manner
proteins with decreased expression (RPPA, STRING network analysis) [2]: PTEN, PARP1, GSK3B
proteins with increased expression (RPPA, STRING network analysis) [2]: Met, ERBB2, CCND1
